Measurements: publication PMC4272272 (PLoS ONE, 2014)
Where two headings read alike, the source gives them in different places.

Key:
[1] = Safety assessment (adverse events, physical examination, vital signs) after liraglutide; assay type: in vivo, human; details: off-hemodialysis (day 2) or on-hemodialysis (day 3); 0.6 or 0.9 mg s.c.; 10 patients
Method: The severity and causal relationship to liraglutide of all treatment-related adverse events in these patients were assessed by the investigators. A physical examination, including vital signs (blood pressure and heart rate) and clinical laboratory biochemical tests, was also performed on each patient.

plasma glucose = details: CGM, mean ± SD, n = 10
Method: CGM was performed both off-hemodialysis (day 2) and on-hemodialysis (day 3).
The mean, maximum, and minimum glucose concentrations; SD; and MAGE were analyzed using a paired t-test and 95% confidence interval (CI) for the mean ratio (on-hemodialysis/off-hemodialysis). Because these values could be logarithmically transformed, the transformed data were used for analyses. […] In these cases, the original non-transformed values were analyzed by paired t-test. […] Values of p<0.05 were considered significant.

[2] = design: method as in earlier work; details: ref 2 (Ishida et al., 2011) of supplement, cited from earlier work
[3] = design: method as in PMID 23445717; details: cited from earlier work
[4] = tested on: albumin and α-acidic glycoprotein; details: plasma protein binding; cited from earlier work
Source text: Insulin treatment remains the main therapy for the control of hyperglycemia in diabetic patients with ESRD requiring hemodialysis, but it sometimes induces severe hypoglycemia.

[5] = cited from earlier work; for Liraglutide AUC lower than in healthy subjects, on average: single dose, ref 1 (Jacobsen et al., 2009) of supplement
[6] = human, in vivo; cited from earlier work

CCCCCCCCCCCCCCCC(=O)N[C@@H](CCC(=O)NCCCC[C@H](NC(=O)[C@H](C)NC(=O)[C@H](C)NC(=O)[C@H](CCC(N)=O)NC(=O)CNC(=O)[C@H](CCC(=O)O)NC(=O)[C@H](CC(C)C)NC(=O)[C@H](Cc1ccc(O)cc1)NC(=O)[C@H](CO)NC(=O)[C@H](CO)NC(=O)[C@@H](NC(=O)[C@H](CC(=O)O)NC(=O)[C@H](CO)NC(=O)[C@@H](NC(=O)[C@H](Cc1ccccc1)NC(=O)[C@@H](NC(=O)CNC(=O)[C@H](CCC(=O)O)NC(=O)[C@H](C)NC(=O)[C@@H](N)Cc1cnc[nH]1)[C@@H](C)O)[C@@H](C)O)C(C)C)C(=O)N[C@@H](CCC(=O)O)C(=O)N[C@@H](Cc1ccccc1)C(=O)N[C@H](C(=O)N[C@@H](C)C(=O)N[C@@H](Cc1c[nH]c2ccccc12)C(=O)N[C@@H](CC(C)C)C(=O)N[C@H](C(=O)N[C@@H](CCCNC(=N)N)C(=O)NCC(=O)N[C@@H](CCCNC(=N)N)C(=O)NCC(=O)O)C(C)C)[C@@H](C)CC)C(=O)O [liraglutide]
Adverse events, including signs of hypoglycemia [1]: No adverse events
AUC during 24 hr in hyperglycemia (>180 mg/dL) (plasma glucose; off-hemodialysis (day 2)): 7746.0 ± 17246.4 mg·min/dL
MAGE (mean amplitude of glycemic excursions) (plasma glucose; off-hemodialysis (day 2)): 55.6 ± 27.4 mg/dL
Minimum glucose level (plasma glucose; off-hemodialysis (day 2)): 92.7 ± 27.1 mg/dL
Time during 24 hr in hyperglycemia (>180 mg/dL) (plasma glucose; off-hemodialysis (day 2)): 214.5 ± 388.4 min
AUC during 24 hr in hyperglycemia (>180 mg/dL) (plasma glucose; on-hemodialysis (day 3)): 11427.5 ± 19184.4 mg·min/dL
MAGE (mean amplitude of glycemic excursions) (plasma glucose; on-hemodialysis (day 3)): 90.0 ± 65.7 mg/dL
Minimum glucose level (plasma glucose; on-hemodialysis (day 3)): 88.4 ± 21.4 mg/dL
Time during 24 hr in hyperglycemia (>180 mg/dL) (plasma glucose; on-hemodialysis (day 3)): 210.0 ± 282.9 min
Patients withdrawn from liraglutide treatment due to nausea ([2]; 19 patients switched from insulin): Two patients
Hypoglycemia symptoms after the switch to liraglutide ([2]; 30% of the subjects complained before the switch): not observed
Glycosylated haemoglobin 1c (HbA1c) after one month of liraglutide ([2]; from 5.3±0.5 before the switch from insulin, p= 0.07, 19 patients): 5.1±0.5
Glycoalbumin (GA) after one-month treatment of liraglutide ([2]; from 21.0±2.2 before the switch from insulin, p= 0.02, 19 patients): 19.4±2.4%
Adverse events ([3]; 0.3 mg/day, nine diabetic Japanese patients with ESRD): no adverse events
Mean period of hypoglycemia after liraglutide administration ([3]; 0.3 mg, diabetic patients with ESRD undergoing hemodialysis): approximately 50 min/day
Liraglutide binding to albumin and α-acidic glycoprotein [4]: approximately 99%
Liraglutide AUC lower than in healthy subjects, on average ([5]; end-stage renal disease): 26%
Liraglutide AUC lower than in healthy subjects, on average ([5]; mild renal impairment): 33%
Liraglutide AUC lower than in healthy subjects, on average ([5]; moderate renal impairment): 14%
Liraglutide AUC lower than in healthy subjects, on average ([5]; severe renal impairment): 27%
Adverse events ([5]; single injection 0.75 mg, non-diabetic Caucasian patients with varying degrees of renal impairment): 2 events of vomiting and 1 event of nausea

exenatide
AUC0–∞ in non-diabetic patients with ESRD relative to healthy controls [6]: 3.37 times
Cmax in non-diabetic patients with ESRD relative to healthy controls [6]: 1.38 times
